The text below walks through data of PubChem BioAssay AID1205 (EPA DSSTox, 2008).

Activity calls are given as the source filed them.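 How the source made its calls: active means tumour findings in long-term animal cancer tests in more than one sex, species or organ; inactive means no tumour finding and more than one negative test.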

The data set is described as follows: DSSTox (CPDBAS) Carcinogenic Potency Database Summary MultiCellCall Results. The note with it: animal carcinogenicity bioassays, multi-cell call summary. The source says: The Carcinogenic Potency Database (CPDB) is a unique and widely used international resource of the results of over 6500 chronic, long-term animal cancer tests on over 1500 chemical substances. The CPDB provides easy access to the bioassay literature, with qualitative and quantitative analyses of both positive and negative experiments that have been published over the past 50 years in the general literature and by the National Cancer Institute/National Toxicology Program. The CPDB standardizes the diverse literature of cancer bioassays that vary widely in protocol, histopathological examination and nomenclature, and in the published author's choices of what information to provide in their papers. Results are reported in the CPDB for tests in rats, mice, hamsters, dogs, and nonhuman primates, and are based on the most positive result among all experiments for each sex-species. The DSSTox CPDBAS (all species) file incorporates data from the CPDB Summary Tables for the full list of over 1500 chemical substances tested in at least one species. A summary MultiCellCall, based on experimental bioassay results of one or more species, is provided in the DSSTox CPDBAS file (see Source URL) for more than 1150 chemical substances.
Associated TD50 values and tumor site details for the relevant species/sex experiment supporting the overall CPDBAS MultiSiteCall are provided in the full DSSTox CPDBAS file (see Comment) and the corresponding CPDBAS Species Bioassay in PubChem. ActivityScore is computed as follows: multispecies=50, multisex=30, multisite=20, with combination scores computed as sums of these values, e.g. multispecies+multisite=70.

On to `C/C=C(\C)C(=O)O[C@@H]1CCN2CC=C(COC(=O)C(O)(C(C)C)C(C)O)[C@H]12` (some centres undefined), for which the outcome is “active; multisite active”. The value for `CNC(=O)Oc1cc(C)c(N(C)C)c(C)c1` was “inactive; multisex inactive; multispecies inactive”. Next, `Cc1noc(NS(=O)(=O)c2ccc(N)cc2)c1C`: “inactive; multisex inactive; multispecies inactive”; `Cc1cc(-c2ccc(N)c(C)c2)ccc1N`: “active; multisite active; multisex active; multispecies active”. As for `CC(=O)Oc1c(C)c(C)c2c(c1C)CCC(C)(CCCC(C)CCCC(C)CCCC(C)C)O2` (centres undefined), the outcome is “inactive; multisex inactive”. The value for `O=S(=O)(O)c1ccc(N=Nc2c(O)ccc3cc(S(=O)(=O)O)ccc23)cc1` was “inactive; multisex inactive; multispecies inactive”; that for `COc1ccccc1[N+](=O)[O-]` was “active; multisite active; multisex active; multispecies active”; that for `ClCC(Cl)(Cl)Cl` was “active; multisex active”. With `[O-][Cl+]O`, the outcome is “inactive; multisex inactive; multispecies inactive”.

For the compound `C=CCN(N=O)C(N)=O`, the outcome is “active; multisite active; multisex active”. The value for `O=C1Nc2ccc(Cl)cc2C(c2ccccc2)=NC1O` (centres undefined) was “active; multisite active; multisex active”.

`CCCCCCCCCCCCN=C(N)N`: the outcome was “inactive; multisex inactive”.

As to `[Cl-].[Cl-].[Cl-].[Fe+3]`, the outcome was “inactive; multisex inactive”. For the compound `OCC1CO1` (centres undefined), the outcome is “active; multisite active; multisex active; multispecies active”.

Regarding `C=C(Cl)CSC(=S)N(CC)CC`, the outcome was “active; multisite active; multisex active; multispecies active”. Consider `CC(=O)CN(CC(C)=O)N=O`, for which the outcome was “active; multisite active; multisex active”. For the compound `CCN=[N+]([O-])CC`, the outcome is “active; multisite active”. For the compound `CC/C(C)=N/O`, the outcome was “active; multispecies active”. The value for `C1CNCCN1` was “inactive; multisex inactive”; that for `FC(Cl)(Cl)Cl` was “inactive; multisex inactive; multispecies inactive”. In the case of `N=C1C=CC(=C(c2ccc(N)cc2)c2ccc(N)cc2)C=C1`, the outcome was “active; multisite active; multisex active; multispecies active”.

`C=CCN(CC(C)=O)N=O`: the outcome was “active; multisite active; multispecies active”. Regarding `C#C[C@]1(OC(C)=O)CC[C@H]2[C@@H]3CCC4=C[C@@H](OC(C)=O)CC[C@@H]4[C@H]3CC[C@@]21C`, the outcome was “inactive; multispecies inactive”. For `ClC(Cl)C(Cl)(Cl)Cl`, the outcome was “active; multisex active”. Consider `CCC(C)c1cc([N+](=O)[O-])cc([N+](=O)[O-])c1O` (centres undefined), for which the outcome is “inactive; multisex inactive”.

On to `CCc1nc(N)nc(N)c1-c1ccc(Cl)cc1`, for which the outcome was “inactive; multisex inactive; multispecies inactive”.

Turning to `OC[C@@H](O)[C@@H](O)[C@H](O)[C@H](O)CO[C@H]1O[C@H](CO)[C@@H](O)[C@H](O)[C@H]1O`, the outcome is “inactive; multisex inactive”. In the case of `CNc1ncnc2nc[nH]c12`, the outcome was “inactive; multisex inactive”. As for `CC(Cc1ccccc1)NN` (centres undefined), the outcome is “inactive; multisex inactive”. For `O=NN1CCC[C@H]1C(=O)O`, the outcome was “inactive; multisex inactive”. On to `CN(C)CNc1nnc(/C=C/c2ccc([N+](=O)[O-])o2)o1`, for which the outcome was “active; multisite active”.

On to `ClC(Cl)C(Cl)Cl`, for which the outcome was “active; multisex active”. Consider `CN1CCCC1=O`, for which the outcome is “active; multisex active”.

On to `Clc1ccc(Cl)cc1`, for which the outcome was “active; multisite active; multisex active; multispecies active”. Turning to `Cc1ccc2ccccc2c1`, the outcome is “inactive; multisex inactive”. As for `Clc1cc2c(c(Cl)c1Cl)Oc1c(cc(Cl)c(Cl)c1Cl)O2`, the outcome was “active; multisex active; multispecies active”. The value for `C=CF` was “active; multisite active; multisex active; multispecies active”; that for `OCN(CO)c1nc(N(CO)CO)nc(N(CO)CO)n1` was “active; multisite active”.

Consider `COc1c2occc2cc2ccc(=O)oc12`, for which the outcome is “active; multisite active”.

Take `CCOc1nc2cccc(C(=O)OC(C)OC(=O)OC3CCCCC3)c2n1Cc1ccc(-c2ccccc2-c2nn[nH]n2)cc1` (centres undefined): the outcome was “inactive; multisex inactive”.

Consider `ClC(Cl)(Cl)Cl`, for which the outcome is “active; multisite active; multisex active; multispecies active”. Take `CCCCCCCCCc1ccc(OCCOCCO)cc1`: the outcome is “inactive; multispecies inactive”. In the case of `CC(=O)C1C(=O)C=C(C)OC1=O` (centres undefined), the outcome is “inactive; multisex inactive”. As to `CCN(CC)C(=S)S`, the outcome is “inactive; multisex inactive; multispecies inactive”. For the compound `O=P(=O)O`, the outcome was “inactive; multisex inactive”. Regarding `C=CCl`, the outcome was “active; multisite active; multisex active; multispecies active”. Next, `O=[N+]([O-])/C=C/c1ccccc1`: “inactive; multisex inactive; multispecies inactive”. On to `C1N2CN3CN1CN(C2)C3`, for which the outcome was “inactive; multisex inactive; multispecies inactive”. For `O=S(=O)(Oc1ccc(Cl)cc1Cl)c1ccccc1`, the outcome is “inactive; multisex inactive”. With `COc1ccc(C)cc1N`, the outcome was “active; multisite active; multisex active; multispecies active”. Consider `C=COC(C)=O`, for which the outcome was “active; multisite active; multisex active; multispecies active”. In the case of `CN1C(=O)C(O)N=C(c2ccccc2)c2cc(Cl)ccc21` (centres undefined), the outcome is “inactive; multisex inactive”. Regarding `CC/C(=C(/CC)c1ccc(O)cc1)c1ccc(O)cc1`, the outcome is “active; multisite active; multisex active; multispecies active”. `Oc1ccccc1`: the outcome was “inactive; multisex inactive; multispecies inactive”.

For `C=C1C(C)(C)[C@@]2(Cl)C(Cl)[C@]1(Cl)C(Cl)(Cl)C2(Cl)Cl` (some centres undefined), the outcome is “active; multisite active”. Take `CNC[C@H](O)c1cccc(O)c1`: the outcome is “inactive; multisex inactive; multispecies inactive”. Next, `CN(N=O)c1ccccc1`: “active; multisex active”; `O=NN1CCSCC1`: “active; multisite active; multisex active”. As to `COc1cccc2c1cc([N+](=O)[O-])c1c(C(=O)O)cc3c(c12)OCO3`, the outcome is “active; multisex active”. On to `Cc1ccccc1N=O`, for which the outcome is “active; multisite active”.

For the compound `CCc1cccc2c3c([nH]c12)C(CC)(CC(=O)O)OCC3` (centres undefined), the outcome was “inactive; multisex inactive; multispecies inactive”. For the compound `Cc1ccc([N+](=O)[O-])cc1N`, the outcome is “active; multisite active; multisex active”.

As for `Cc1cc(O)c(C(C)(C)C)cc1Sc1cc(C(C)(C)C)c(O)cc1C`, the outcome is “inactive; multisex inactive; multispecies inactive”. For the compound `CC1CO1` (centres undefined), the outcome was “active; multisite active; multisex active; multispecies active”.

In the case of `O=C1NCCN1/N=C/c1ccc([N+](=O)[O-])o1`, the outcome is “active; multisite active”. In the case of `C=C(C)C(=O)Nc1ccc(Cl)c(Cl)c1`, the outcome was “inactive; multisex inactive”. Next, `O=C(O)Cc1c[nH]c2ccccc12`: “inactive; multisex inactive”.

On to `CO[C@@]12[C@H](COC(N)=O)C3=C(C(=O)C(C)=C(N)C3=O)N1C[C@@H]1N[C@@H]12`, for which the outcome is “active; multisex active”. On to `ClCC1CO1` (centres undefined), for which the outcome was “active; multisex active”. Turning to `CCCc1cc(=O)[nH]c(=S)[nH]1`, the outcome is “active; multisite active; multisex active; multispecies active”.

For the compound `O=[N+]([O-])c1ccc(Cl)c([N+](=O)[O-])c1`, the outcome is “inactive; multisex inactive; multispecies inactive”. In the case of `CN(CCCC(O)c1cccnc1)N=O` (centres undefined), the outcome is “active; multisite active”. On to `ClC(Cl)=C(Cl)Cl`, for which the outcome was “active; multisite active; multisex active; multispecies active”. With `C#C[C@]1(O)CC[C@H]2[C@@H]3CCc4cc(OC)ccc4[C@H]3CC[C@@]21C`, the outcome was “inactive; multisex inactive”. As for `COc1ccccc1N`, the outcome is “active; multisite active; multisex active; multispecies active”. The value for `Cc1cc(N=Nc2c(O)ccc3ccccc23)c(S(=O)(=O)O)cc1Cl` was “active; multisite active”; that for `ClCC(Cl)Cl` was “active; multisite active; multisex active”; that for `Nc1ccccc1N` was “active; multisex active; multispecies active”. Next, `c1ccc2occc2c1`: “active; multisite active; multisex active; multispecies active”; `C=C(C)[C@H]1CC=C(C)C(=O)C1`: “inactive; multisex inactive”; `O=NN1CCOC1`: “active; multisite active; multisex active”. For `Nc1ccc(N(CCO)CCO)cc1`, the outcome was “inactive; multisex inactive”.

In the case of `COC(=O)C(c1ccccc1)C1CCCCN1N=O` (centres undefined), the outcome was “inactive; multisex inactive”.

In the case of `CCCCC(CC)COC(=O)c1ccccc1C(=O)OCC(CC)CCCC` (centres undefined), the outcome is “active; multisex active; multispecies active”.
